Source: patent publication US6387881B1, “Inhibitors and substrates of thrombin” (priority 1992, dated 2002)
pIC50, pKi: −log10 of the molar value. “And” between values parts separate entries of the source, which are not always exact repeats. Equal entries are not always repeated. Where two headings read alike, the source gives them in different places.

Assays:
[1] = tested on: citrated normal human plasma; experiment: Activated partial thromboplastin time (APTT) for in vitro samples; assay type: biochemical
Method: (§1) A volume of 150 μl of citrated (3.2%) normal human plasma was incubated at 37° C. with sample (20 μl) or buffer (20 μl, control) for 1 min. To the solution was added reconstituted “AUTOMATED APTT” (available from Organon Teknika, 0.1 ml). Each solution was activated at 37° C. for 5 min.
(§2) After activation, calcium chloride (0.1 ml, 0.025M, prewarmed at 37° C.) was added and clot detection was timed using a “semiautomated coagulometer” (Nach, Schnicter und Gross).

human α-thrombin = human α-thrombin (Homo sapiens, UniProt P00734); experiment: biochemical; assay type: biochemical; settings: read-out: Ki
Method: The inhibition of human α-thrombin was determined by the inhibition of the enzyme catalyzed hydrolysis of three different concentrations of the chromogenic substrate S-2238.
200 μl of sample or buffer and 50 μl of S-2238 were incubated at 37° C. for 1 min and 50 μl of human α-thrombin (0.25 NIHu/ml) was added. The initial rate of inhibited and uninhibited reactions were recorded at 405 nm. The increase in optical density was plotted according to the method of Lineweaver and Burke. The Km and apparent Km were determined and Ki was calculated using the relationship: [formula]

Plasmin = Plasmin (Homo sapiens, UniProt P00747); experiment: IC50 against plasmin; assay type: biochemical
Sequence of Plasmin (P00747 97-580 limits assumed, species assumed): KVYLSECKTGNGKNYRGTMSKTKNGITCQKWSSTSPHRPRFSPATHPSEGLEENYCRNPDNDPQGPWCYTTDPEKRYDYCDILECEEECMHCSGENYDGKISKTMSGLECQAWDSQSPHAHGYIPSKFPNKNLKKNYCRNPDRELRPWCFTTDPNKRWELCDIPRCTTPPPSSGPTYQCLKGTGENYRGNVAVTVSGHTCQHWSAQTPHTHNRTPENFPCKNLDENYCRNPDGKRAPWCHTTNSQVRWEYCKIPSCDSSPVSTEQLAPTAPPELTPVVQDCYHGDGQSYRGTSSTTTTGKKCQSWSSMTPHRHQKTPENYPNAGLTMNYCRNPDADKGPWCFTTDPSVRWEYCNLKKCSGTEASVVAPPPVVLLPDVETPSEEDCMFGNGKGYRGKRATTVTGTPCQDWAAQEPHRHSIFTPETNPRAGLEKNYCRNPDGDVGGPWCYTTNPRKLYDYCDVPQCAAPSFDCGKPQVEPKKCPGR
Sequence of Plasmin (P00747 581-810 limits assumed, species assumed): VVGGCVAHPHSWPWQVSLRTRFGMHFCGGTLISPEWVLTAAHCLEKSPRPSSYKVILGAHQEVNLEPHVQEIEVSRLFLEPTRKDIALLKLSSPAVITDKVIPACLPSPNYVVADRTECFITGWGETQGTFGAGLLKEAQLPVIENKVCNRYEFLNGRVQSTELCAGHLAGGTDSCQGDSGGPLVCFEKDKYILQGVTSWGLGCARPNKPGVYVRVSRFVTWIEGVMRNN

Urokinase = Urokinase (Homo sapiens, UniProt P00749); experiment: IC50 against urokinase; assay type: biochemical
[2] = tested on: bovine thrombin in plasma samples; experiment: Ex-vivo TT; assay type: in vivo, New Zealand white rabbits; parameters: key: thrombin (coagulation) time in seconds; settings: 1 mg/kg i.v. bolus, rabbit
Method: (§3) A volume of 150 μl of citrated normal human plasma and 20 μl of buffer or sample were warmed at 37° C. for 1 min. Coagulation was started by adding 150 ul of freshly prepared bovine thrombin (5 NIHu/ml saline) and the coagulation time was recorded on a coagulometer.
(§4) A phosphate buffer, pH 7.8, containing 0.1% bovine serum albumine and 0.02% sodium azide was used. The samples were dissolved in DMSO and diluted with the buffer. When no inhibitor was used DMSO was added to the buffer to the same concentration as that used in the samples. The inhibitor concentrations were plotted against the thrombin times in a semilogarithmic graph from which the inhibitor concentration that caused a doubling (40 sec) of the thrombin time was determined.
(§5) Data was obtained as for in-vitro tests, but using plasma samples obtained at 0, 1, 10, 30 and 60 minutes after dosing of 1 mg/kg, i.v. bolus injection in a marginal ear vein in New Zealand white rabbits, which were anaesthetized from a canula in the carotid artery. [drawing 18]

[3] = Peripheral blood pressure after intravenous dose; assay type: in vivo, New Zealand white rabbits; settings: 1 mg/kg i.v. dose
From the text: […] R. May, C. M. Hero, K. D. Butler, C. P. Page, JOURNAL OF PHARMACOLOGICAL METHODS, 24, pp 1-35, 1990. Peripheral blood pressure was monitored by a pressure sensor in the carotid artery.

Xa = target: T1, Xa (Homo sapiens, UniProt P00742); experiment: IC50 against Xa; assay type: biochemical
T1 construct: Plasmin; Xa; Urokinase
T1 sequence (P00742 41-179 limits assumed): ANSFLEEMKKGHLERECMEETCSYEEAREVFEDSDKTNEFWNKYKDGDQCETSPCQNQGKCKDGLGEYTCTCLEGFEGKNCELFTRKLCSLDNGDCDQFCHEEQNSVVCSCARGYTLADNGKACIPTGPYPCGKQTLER
T1 sequence (P00742 235-488 limits assumed): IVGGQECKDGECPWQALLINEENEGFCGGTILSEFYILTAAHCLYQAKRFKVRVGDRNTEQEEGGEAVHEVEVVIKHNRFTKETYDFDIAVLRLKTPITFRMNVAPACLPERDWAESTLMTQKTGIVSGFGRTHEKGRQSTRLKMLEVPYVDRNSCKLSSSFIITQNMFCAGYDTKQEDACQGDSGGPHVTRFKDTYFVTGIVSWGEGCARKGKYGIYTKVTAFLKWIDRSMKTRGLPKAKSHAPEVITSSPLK

Kalhikrein = experiment: IC50 against kallikrein; assay type: biochemical
plasma samples = experiment: Ex-vivo APTT; assay type: in vivo, New Zealand white rabbits; parameters: unit not given here; settings: 1 mg/kg i.v. bolus, rabbit
Method: as §1, §2, §5

[4] = tested on: 111indium-labelled platelets; experiment: Deposition of 111indium-labelled platelets after intravenous dose; assay type: in vivo, New Zealand white rabbits; settings: 1 mg/kg i.v. dose
From the text: M. Hero, K. D. Butler, C. […] Peripheral blood pressure was monitored by a pressure sensor in the carotid artery.

[5] = target: T2, bovine thrombin in citrated normal human plasma (Bos taurus, UniProt P00735); experiment: Plasma thrombin time (TT), in vitro; assay type: biochemical; settings: inhibitor concentration that caused a doubling of the thrombin time
T2 construct: freshly prepared bovine thrombin (5 NIHu/ml saline)
Method: as §3, §4

[6] = IC50 with and without incubation (enzyme not given); assay type: biochemical
[7] = no incubation, read-out: IC50 No Incubations
[8] = human α-thrombin, S-2238, 37° C.

SMILES: N=C(N)NCCCC(NC(=O)C1CCCN1C(=O)C(N)C(c1ccccc1)c1ccccc1)C(=O)CCC(=O)N1CCCCC1 (mixture of isomers) [Compound 4, D,L-Dpa-Pro-Arg--k--Gly-Pip]
- APTT [1]: 45.0 µM
- pKi (human α-thrombin): 6.22

SMILES: N=C(N)NCCCC(NC(=O)C1CCCN1C(=O)C(N)C(c1ccccc1)c1ccccc1)C(=O)CCC(=O)N1CCCCC1.O=C(O)C(F)(F)F.O=C(O)C(F)(F)F [Compound 6, D-Dpa-Pro-Arg--k--Gly-Pip]
- pIC50 (Plasmin; single value given, incubation not given, read-out: Plasmin no inc/inc): < 3.80
- pIC50 (Urokinase; single value given, incubation not given, read-out: Urokinase no inc/inc): 3.31
- EX-VIVO T.T. ([2]; time 0 min): 24.4 and 25.6 and 32.9 and 27.9
- EX-VIVO T.T. ([2]; time 1 min): 176 and 200 and 260 and >200
- EX-VIVO T.T. ([2]; time 10 min): 55 and 61.4 and 76 and 57.5
- EX-VIVO T.T. ([2]; time 30 min): 33 and 36.9 and 62 and 36
- EX-VIVO T.T. ([2]; time 60 min): 25 and 27.9 and 49 and 31.5
- BLOOD PRESSURE Δ% of NORM [3]: NONE
- pIC50 (Xa; single value given, incubation not given, read-out: Xa no inc/inc): 3.83
- pIC50 (Kalhikrein; single value given, incubation not given, read-out: Kalhikrein no inc/inc): 3.70
- EX-VIVO A.P.T.T. (plasma samples; time 1 min): 46 and 78
- EX-VIVO A.P.T.T. (plasma samples; time 10 min): 32 and 55
- EX-VIVO A.P.T.T. (plasma samples; time 30 min): 34 and 57
- EX-VIVO A.P.T.T. (plasma samples; time 60 min): 27 and 42
- APTT [1]: 8.0 µM
- PLATELET ACCUMULATION (% OF NORMAL) LEG [4]: NONE
- PLATELET ACCUMULATION (% OF NORMAL) LUNG [4]: NONE
- TT [5]: 0.65 µM
- pIC50 [6, 7]: 6.70
- pKi (human α-thrombin): 6.70

SMILES: N=C(N)NCCCC(NC(=O)C1CCCN1C(=O)C(N)C(c1ccccc1)c1ccccc1)C(=O)CCC(=O)N1CCCCC1.O=C(O)C(F)(F)F.O=C(O)C(F)(F)F (stereo not drawn) [Compound 7, L,Dpa-Pro-Arg--k--Gly-Pip]
- APTT [1]: 100.0 µM
- TT [5]: 7.5 µM
- pKi (human α-thrombin): 5.77

SMILES: COCCCC(NC(=O)[C@@H]1CCCN1C(=O)[C@H](N)C(c1ccccc1)c1ccccc1)P(=O)(Oc1ccccc1)Oc1ccccc1 (stereo partly drawn) [Compound 32, H-D-Dpa-Pro-Mpg^P(OPh)2]
- pIC50 (Plasmin; no incubation (first value of cell), read-out: Plasmin no inc): < 3.73
- pIC50 (Plasmin; with incubation (second value of cell), read-out: Plasmin inc): 5.48
- pIC50 (Urokinase; no incubation (first value of cell), read-out: Urokinase no inc): 4.08
- pIC50 (Urokinase; with incubation (second value of cell), read-out: Urokinase inc): < 4.73
- pIC50 (Xa; no incubation (first value of cell), read-out: Xa no inc): 4.40
- pIC50 (Xa; with incubation (second value of cell), read-out: Xa inc): < 4.73
- pIC50 (Kalhikrein; no incubation (first value of cell), read-out: Kalhikrein no inc): 4.18
- pIC50 (Kalhikrein; with incubation (second value of cell), read-out: Kalhikrein inc): < 4.73
- TT [5]: 9.1 µM
- pIC50 [6, 7]: 5.83
- pIC50 ([6]; with incubation, read-out: IC50 Inc.): 8.63
- pKi (human α-thrombin; [8]): 8.32

SMILES: N=C(N)NCCCC(NC(=O)C1CCCN1C(=O)C(N)Cc1ccc2ccccc2c1)C(=O)CCC(=O)N1CCCCC1 [Compound 54, D-β-Nal-Pro-Arg--k--Gly-Pip]
- APTT [1]: 45.0 µM
- TT [5]: 5.3 µM
- pKi (human α-thrombin; [8]): 5.54
